Assay results reported in patent US9028845B2, “Chimeric immunomodulatory compounds and methods of using the same-IV” (Dynavax Technologies Corporation, priority 2001, dated 2015).

Test system: human PBMCs
Test: Human PBMC cytokine response assay (IFN-γ and IFN-α in cell-free medium by ELISA), with or without cPLGA;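 on IFN-α (pg/ml) mean: 20 µg/mL compound for 24 hours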;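 on IFN-γ (pg/ml) mean: 20 µg/mL compound for 24 hours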
Type: cell-based
Settings: for IFN-α (pg/ml) mean / IFN-γ (pg/ml) mean: mean of donors 110, 112, 119, 120
[1] = Table 24, mean of donors 28234-28237

Substance	IFN-α (Table 10, donor 28042) [pg/mL]	IFN-γ (Table 10, donor 28042) [pg/mL]	IFN-α (Table 10, donor 28043) [pg/mL]	IFN-γ (Table 10, donor 28043) [pg/mL]	IFN-α (Table 10, donor 28044) [pg/mL]	IFN-γ (Table 10, donor 28044) [pg/mL]	IFN-α (Table 10, donor 28045) [pg/mL]	IFN-γ (Table 10, donor 28045) [pg/mL]	IFN-α mean (Table 10, mean of donors) [pg/mL]	IFN-γ mean (Table 10, mean of donors) [pg/mL]	IFN-α (donor 110, Table 14) [pg/mL]	IFN-γ (donor 110, Table 14) [pg/mL]	IFN-α (donor 112, Table 14) [pg/mL]	IFN-γ (donor 112, Table 14) [pg/mL]	IFN-α (donor 119, Table 14) [pg/mL]	IFN-γ (donor 119, Table 14) [pg/mL]	IFN-α (donor 120, Table 14) [pg/mL]	IFN-γ (donor 120, Table 14) [pg/mL]	IFN-α (pg/ml) mean (Table 14) [pg/mL]	IFN-γ (pg/ml) mean (Table 14) [pg/mL]	also measured
(5′-TCGACGT-HEG)2-glycerol-HEG-5′-TTGGCCAAGCTTGGCCAA (SEQ ID NO: 116) (DNA, all phosphorothioate, methylation of C not given here; Two heptamer DNA arms joined by HEG spacers and glycerol branching to the chain) [Compound C-178]	–	–	–	–	–	–	–	–	–	–	–	–	–	–	–	–	–	–	–	–	IFN-α (Example 59, 0.8 ug/ml, donor 48): 336 pg/mL; IFN-α (Example 59, 0.8 ug/ml, donor 177): 1150 pg/mL; IFN-α (Example 59, 0.8 ug/ml, donor 272): 149 pg/mL; IFN-α (Example 59, 0.8 ug/ml, donor 273): 102 pg/mL; IFN-α mean (Example 59, 0.8 ug/ml, mean of four donors): 434 pg/mL; IFN-α (Example 59, 4 ug/ml, donor 48): 16300 pg/mL; IFN-α (Example 59, 4 ug/ml, donor 177): 8304 pg/mL; IFN-α (Example 59, 4 ug/ml, donor 272): 1677 pg/mL; IFN-α (Example 59, 4 ug/ml, donor 273): 1732 pg/mL; IFN-α mean (Example 59, 4 ug/ml, mean of four donors): 7003 pg/mL; IFN-α (Example 59, 20 ug/ml, donor 48): 13946 pg/mL; IFN-α (Example 59, 20 ug/ml, donor 177): 19973 pg/mL; IFN-α (Example 59, 20 ug/ml, donor 272): 15050 pg/mL; IFN-α (Example 59, 20 ug/ml, donor 273): 3971 pg/mL; IFN-α mean (Example 59, 20 ug/ml, mean of four donors): 13235 pg/mL
5′-TCGTCG-3′-HEG-5′-TCGA-3′ [Compound C-40]	0	26	26	55	31	20	2	23	15	31	6	180	198	12	152	4	2	20	90	54	activity when formulated with cPLGA, in words (formulated with cPLGA): significant activity when formulated with cPLGA; immunomodulatory activity (IFN-γ / IFN-α secretion), in words (used alone (no cPLGA)): inactive in this experiment
5′-TCGTTTT-3′-HEG-5′-TCGTTTT-3′-HEG-5′-TCGTTTT-3′ [Compound C-41]	0	174	3	1075	23	841	0	45	7	534	58	512	2	100	182	32	6	32	62	169	–
5′-AGATGAT-3′-HEG-5′-ACGTTCG-3′-HEG-5′-TCGTCGA-3′ [Compound C-60]	–	–	–	–	–	–	–	–	–	–	–	–	–	–	–	–	–	–	–	–	IFN-α (Table 13, donor 28156): 5 pg/mL; IFN-γ (Table 13, donor 28156): 304 pg/mL; IFN-α (Table 13, donor 28157): 22 pg/mL; IFN-γ (Table 13, donor 28157): 209 pg/mL; IFN-α (Table 13, donor 28158): 3 pg/mL; IFN-γ (Table 13, donor 28158): 26 pg/mL; IFN-α (Table 13, donor 28159): 1 pg/mL; IFN-γ (Table 13, donor 28159): 38 pg/mL; IFN-α mean (Table 13, mean of donors): 8 pg/mL; IFN-γ mean (Table 13, mean of donors): 144 pg/mL
5′-TCGACTC-3′-HEG-5′-TCGAGCG-3′-HEG-5′-TTCTCTT-3′ [Compound C-63]	–	–	–	–	–	–	–	–	–	–	294	1536	38	376	464	80	228	60	256	513	–
5′-TCCA-3′-C3-5′-TGACGTT-3′-C3-5′-CCTGATGCT-3′ [Compound C-88]	–	–	–	–	–	–	–	–	–	–	–	–	–	–	–	–	–	–	–	–	IFN-α (Table 24, donor 28234): 95 pg/mL; IFN-γ (Table 24, donor 28234): 5 pg/mL; IFN-α (Table 24, donor 28235): 16 pg/mL; IFN-γ (Table 24, donor 28235): 21 pg/mL; IFN-α (Table 24, donor 28236): 212 pg/mL; IFN-γ (Table 24, donor 28236): 17 pg/mL; IFN-α (Table 24, donor 28237): 111 pg/mL; IFN-γ (Table 24, donor 28237): 477 pg/mL; IFN-α mean [1]: 109 pg/mL; IFN-γ mean [1]: 130 pg/mL
